Consider 45 compounds from patent publication US5763457A, “Method for treating anxiety” (Eli Lilly and Company, priority 1996, dated 1998).

Series [1] concerns the target muscarinic acetylcholine receptors. Nature of the series: inhibition of specific binding of ^3 H-Oxotremorine-M (^3 H-Oxo). Conditions: ^3 H-Oxotremorine 1.0 nM, rat cortex, 30 min, 25° C. From the text: The pharmacological properties of the compounds of the invention can be illustrated by determining their capability to inhibit the specific binding of ^3 H-Oxotremorine-M (^3 H-Oxo). Birdsdall N. J. M., Hulme E. C., and Burgen A. S. V. (1980). "The Character of Muscarinic Receptors in Different Regions of the Rat Brain". Proc. Roy. Soc. London (Series B) 207,1.
^3 H-Oxo labels muscarinic receptor in the CNS (with a preference for agonist domains of the receptors). Three different sites are labeled by ^3 H-Oxo. […] Using the present experimental conditions only the high and medium affinity sites are determined.
The inhibitory effects of compounds on ^3 H-oxo binding reflects the affinity for muscarinic acetylcholine receptors.
All preparations are performed at 0°-4° C. unless otherwise indicated. Fresh cortex (0.1-1 g) from male Wistar rats (150-250 g) is homogenized for 5-10 s in 10 mL […] Hepes pH: 7.4, with an Ultra-Turrax homogenizer. The homogenizer is rinsed with 10 mL of buffer and the combined suspension centrifuged for 15 min. at 40,000×g. The pellet is washed three times with buffer. In each step the pellet is homogenized as before in 2×10 mL of buffer and centrifuged for 10 min. at 40,000×g.
The final pellet is homogenized in […] Hepes pH: 7.4 (100 mL per g of original tissue) and used for binding assay. Aliquots of 0.5 mL is added 25 μL of test solution and 25 μL of ^3 H-Oxotremorine (1.0 nM, final concentration) mixed and incubated for 30 min. at 25° C. Non-specific binding is determined in triplicate using arecoline (1 μg/mL, final concentration) as the test substance. After incubation samples are added 5 mL of ice-cold buffer and poured directly onto Whatman GF/C glass fiber filters under suction and immediately washed 2 times with 5 mL of ice-cold buffer. The amount of radioactivity on the filters are determined by conventional liquid scintillation counting. Specific binding is total binding minus non specific binding.
Test substances are dissolved in 10 mL water (if necessary heated on a steam-bath for less than 5 min.) at a concentration of 2.2 mg/mL. 25-75% inhibition of specific binding must be obtained before calculation of IC50. The test value will be given as IC50 (the concentration (nM) of the test substance which inhibits the specific binding of ^3 H-oxo by 50%). IC50 =(applied test substance concentration) x([…])nM where Co is specific binding in control assays and Cx is the specific binding in the test assay. (The calculations assume normal mass-action kinetics).

Series [2] has as its target T1, muscarinic receptors (M1 -site, pirenzepine sensitive site) (Rattus norvegicus, UniProt P08482).
T1 construct: from tissue; host or cells: fresh cerebral cortex membranes, male Wistar rat
T1 sequence (P08482 1-460): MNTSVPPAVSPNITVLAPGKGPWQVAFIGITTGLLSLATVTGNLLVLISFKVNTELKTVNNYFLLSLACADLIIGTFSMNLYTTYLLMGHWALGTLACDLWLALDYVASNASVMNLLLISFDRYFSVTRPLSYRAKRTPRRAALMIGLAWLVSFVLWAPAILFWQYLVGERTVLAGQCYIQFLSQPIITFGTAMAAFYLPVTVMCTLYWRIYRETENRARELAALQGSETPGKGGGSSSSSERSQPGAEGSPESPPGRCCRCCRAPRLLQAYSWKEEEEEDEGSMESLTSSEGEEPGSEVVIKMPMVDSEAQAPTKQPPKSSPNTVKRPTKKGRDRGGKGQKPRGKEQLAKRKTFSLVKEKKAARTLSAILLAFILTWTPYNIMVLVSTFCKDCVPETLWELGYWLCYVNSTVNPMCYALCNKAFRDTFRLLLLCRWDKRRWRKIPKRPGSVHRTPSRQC
In words: inhibition of ^3 HPRZ (pirenzepine, [N-methyl-^3 H]) binding to rat cerebral cortex membranes. Conditions: ^3 HPRZ 1.0 nM, 60 min, 20° C. The protocol: Furthermore the pharmacological properties of the compounds of the invention can also be illustrated by determining their capability to inhibit ^3 HPRZ (pirenzepine, [N-methyl-^3 H]) binding to rat cerebral cortex membranes.
Pirenzepine binds selectively to subtype of muscarinic receptors. Historically the type is named the M1 -site, whereas pirenzepine sensitive site would be more appropriate.
All preparations are performed at 0°-4° C. unless otherwise indicated. Fresh cortex (0.1-1 9) from male Wistar rats (150-200 g) is homogenized for 5-10 s in 10 mL 20 mM Hepes pH: 7.4, with an Ultra-Turrax homogenizer. The homogenizer is rinsed with 2×10 mL of buffer and the combined suspension centrifuged for 15 min. at 40,000×g. The pellet is washed three times with buffer. In each step the pellet is homogenized as before in 3×10 mL of buffer and centrifuged for 10 min. at 40,000×g.
The final pellet is homogenized in 20 mM Hepes pH: 7.4 (100 mL per g of original tissue) and used for binding assay. Aliquots of 0.5 mL is added 20 μL of test solution and 25 μL of ^3 HPRZ (1.0 nM, final conc.), mixed and incubated for 60 min. at 20° C. Non-specific binding is determined in triplicate using atropine (1.0 μg/mL, final conc.) as the test substance. After incubation samples are added 5 mL of ice-cold buffer and poured directly onto Whatman GF/C glass fiber filters under suction and immediately washed 2 times with 5 mL of ice-cold buffer. The amount of radioactivity on the filters are determined by conventional liquid scintillation counting. Specific binding is total binding minus non-specific binding.
Test substances are dissolved in 10 mL water, at a concentration of 0.22 mg/mL. 25-75% inhibition of specific binding must be obtained before calculation of IC50.
The test value will be given as IC50 (the concentration (nM) of the test substance which inhibits the specific binding of ^3 HPRZ by 50%). IC50 =(applied test substance concentration) x(Cx /Co -Cx)nM where Co is specific binding in control assays and Cx is the specific binding in the test assay. (The calculations assume normal mass-action kinetics).

Series [3] addresses muscarinic receptor in the CNS. The conditions noted are these: cited from earlier work.
The conditions of series [4]: in vivo; cited from earlier work.

SMILES strings stand for the structures. Like-named read-outs stand apart in the source and are kept apart here. Some results are limits rather than exact numbers.

With `CCCCOc1nonc1OC1CN2CCC1CC2` (racemic) [Compound 1], the IC50 (as a rule, the concentration that gives 50% inhibition) in series [1] is 81 nM; in series [2] it was 56 nM. Taken in the same sequence, the figures for `Clc1nccnc1OC1CN2CCC1CC2` (racemic) [Compound 2] were 374 nM and 253 nM. Consider `CCCCOc1nccnc1OC1CN2CCC1CC2` (racemic) [Compound 3], for which the IC50 in series [1] came out at 19.3 nM; in series [2], 14.5 nM.

Consider `CCCOc1nccnc1OC1CN2CCC1CC2` (racemic) [Compound 4], for which the figures for the IC50 in series [1] and in series [2] were 25 nM and 21 nM, respectively.

`CCCCCCOc1nccnc1OC1CN2CCC1CC2` (racemic) [Compound 5]: the IC50 in series [1] came out at 40 nM; in series [2] it was 32 nM. Regarding `CCCCSc1nccnc1OC1CN2CCC1CC2` (racemic) [Compound 6], the IC50 came out at 2.5 nM in series [1] and 0.9 nM in series [2]. `CCCCCSc1nccnc1OC1CN2CCC1CC2` (racemic) [Compound 7]: in series [2], the IC50 turned out to be 6.7 nM. With `c1cnc(OC2CN3CCC2CC3)cn1` (racemic) [Compound 8], the IC50 in series [2] is over 1000 nM. As for `CCCCCOc1nccnc1OC1CN2CCC1CC2` (racemic) [Compound 9], the IC50 in series [2] is 30 nM.

Regarding `COc1nccnc1OC1CN2CCC1CC2` (racemic) [Compound 10], in series [2], the IC50 was found to be 223 nM. The same measure, in the same setting: to `CCOc1nccnc1OC1CN2CCC1CC2` (racemic) [Compound 11] belongs 53 nM; to `CCCCCCSc1nccnc1OC1CN2CCC1CC2` (racemic) [Compound 12], 13 nM. In series [2], `CSc1nccnc1OC1CN2CCC1CC2` (racemic) [Compound 13] yielded an IC50 of 42 nM. Compound `CCSc1nccnc1OC1CN2CCC1CC2` (racemic) [Compound 14] returned an IC50 in series [2] of 21 nM. In series [2], `CCCSc1nccnc1OC1CN2CCC1CC2` (racemic) [Compound 15] had an IC50 of 13 nM.

On to `CCCCCCCSc1nccnc1OC1CN2CCC1CC2` (racemic) [Compound 16], for which the IC50 in series [2] turned out to be 23 nM. For the compound `Clc1nccnc1O[C@H]1CN2CCC[C@@H]1C2` (relative stereo) [Compound 19], the IC50 in series [2] came out at 108 nM. In turn, `Cc1nccnc1O[C@H]1CN2CCC[C@@H]1C2` (relative stereo) [Compound 20] displayed an IC50 in series [2] of 246 nM. On to `Clc1cncc(O[C@H]2CN3CCC[C@@H]2C3)n1` (relative stereo) [Compound 22], for which the IC50 in series [2] was determined as 52 nM. In turn, `CCCCOc1nccnc1O[C@H]1CN2CCC[C@@H]1C2` (relative stereo) [Compound 23] gave an IC50 in series [2] of 2.7 nM. The compound `CCCCSc1nccnc1O[C@H]1CN2CCC[C@@H]1C2` (relative stereo) [Compound 24] showed an IC50 in series [2] of 0.54 nM.

On to `CCCSc1nccnc1O[C@H]1CN2CCC[C@@H]1C2` (relative stereo) [Compound 29], for which the IC50 in series [2] was determined as 0.68 nM. Turning to `CCCCCSc1nccnc1O[C@H]1CN2CCC[C@@H]1C2` (relative stereo) [Compound 30], the IC50 in series [2] came out at 0.82 nM. Same read-out and setting: under `CC(C)CSc1nccnc1O[C@H]1CN2CCC[C@@H]1C2` (relative stereo) [Compound 31] stands 1.7 nM; under `CCSc1nccnc1O[C@H]1CN2CCC[C@@H]1C2` (relative stereo) [Compound 32], 4 nM. `FC(F)(F)CSc1nccnc1O[C@H]1CN2CCC[C@@H]1C2` (relative stereo) [Compound 33]: the IC50 in series [2] is 0.7 nM. In the case of `C/C=C/CSc1nccnc1O[C@H]1CN2CCC[C@@H]1C2` (relative stereo) [Compound 34], the IC50 in series [2] turned out to be 0.66 nM. Still for that read-out and setting: under `FC(F)(F)CCCSc1nccnc1O[C@H]1CN2CCC[C@@H]1C2` (relative stereo) [Compound 35] stands 0.54 nM. Turning to `C=CCSc1nccnc1O[C@H]1CN2CCC[C@@H]1C2` (relative stereo) [Compound 36], in series [2], the IC50 amounted to 5.8 nM.

`CC(C)CCSc1nccnc1O[C@H]1CN2CCC[C@@H]1C2` (relative stereo) [Compound 37]: in series [2], the IC50 was 0.76 nM.

In series [2], `FC(F)(F)Oc1ccc(CSc2nccnc2O[C@H]2CN3CCC[C@@H]2C3)cc1` (relative stereo) [Compound 38] displayed a half-inhibitory concentration (IC50) of 3.3 nM.

As to `CCCSc1cncc(O[C@H]2CN3CCC[C@@H]2C3)n1` (relative stereo) [Compound 39], in series [2], the IC50 is 80 nM. In series [2], `FC(F)(F)CSc1cncc(O[C@H]2CN3CCC[C@@H]2C3)n1` (relative stereo) [Compound 40] gave an IC50 of 17 nM.

In the case of `COCCSc1nccnc1O[C@H]1CN2CCC[C@@H]1C2` (relative stereo) [Compound 41], the half-maximal inhibitory concentration (IC50) in series [2] amounted to 1.6 nM.

With `C(=Cc1ccccc1)CSc1nccnc1O[C@H]1CN2CCC[C@@H]1C2` (relative stereo) [Compound 42], in series [2], the IC50 was 4.8 nM. In turn, `CC(C)=CCCSc1nccnc1O[C@H]1CN2CCC[C@@H]1C2` (relative stereo) [Compound 43] came in with an IC50 in series [2] of 2.2 nM. The same measure, in the same setting: to `CCCCSc1nccnc1OCCN(C)C` [Compound 17] belongs 4.5 nM; to `CCCCSc1nccnc1OCC[N+](C)(C)C` [Compound 18], 5.4 nM. `c1cnc(O[C@H]2CN3CCC[C@@H]2C3)cn1` [Compound 21] came in with an IC50 in series [2] of 123 nM. On to `CN1[C@@H]2CC[C@H]1C[C@@H](Oc1cnccn1)C2` [Compound 25], for which the IC50 in series [2] came out at 680 nM.

On to `CN(C)CCOc1cnccn1` [Compound 26], for which, in series [2], the IC50 was over 1000 nM. Turning to `C[N+](C)(C)CCOc1cnccn1` [Compound 27], the IC50 in series [2] is over 1000 nM. For the compound `CN1CCC[C@H]1COc1cnccn1` [Compound 28], the IC50 in series [2] is 5710 nM. In the case of `C[N+](C)(C)CC#CCN1CCCC1=O` [^3 H-Oxo, ^3 H-Oxotremorine-M], the Kd is 1.8 nM in series [3] (first (high affinity) site); 20 nM in series [3] (second (medium affinity) site); 3000 nM in series [3] (third site, not determined under present conditions, read-out: affinity). Take `CCCC(C)(COC(N)=O)COC(N)=O` [meprobamate]: in series [4], the side effects result was “numerous side effects such as potential for abuse and addiction or potentiation of the effects of ethanol”.
